Laboratory results reported in patent US7998989B2, “2-Imino-1,3-thiazoline-based compounds and T-type calcium channel inhibitors containing the same” (Korea Institute of Science and Technology, priority 2007, dated 2011).

Key:
[1] = biological target: T1, α1G T-type calcium channel (Homo sapiens, UniProt O43497); experiment: Assay for % inhibiting activity against T-type calcium channel using FDSS6000 (fluo-3 calcium imaging, KCl activation); format: cell-based; details: HEK293 cells stably expressing α1G T-type calcium channel and Kir2.1, compounds of the examples; for inhibition at 10 µM: HEK293, 10 μM, read-out: FDSS (% inhibition)/10uM
T1 construct: host or cells: HEK293
T1 sequence (O43497 whole entry): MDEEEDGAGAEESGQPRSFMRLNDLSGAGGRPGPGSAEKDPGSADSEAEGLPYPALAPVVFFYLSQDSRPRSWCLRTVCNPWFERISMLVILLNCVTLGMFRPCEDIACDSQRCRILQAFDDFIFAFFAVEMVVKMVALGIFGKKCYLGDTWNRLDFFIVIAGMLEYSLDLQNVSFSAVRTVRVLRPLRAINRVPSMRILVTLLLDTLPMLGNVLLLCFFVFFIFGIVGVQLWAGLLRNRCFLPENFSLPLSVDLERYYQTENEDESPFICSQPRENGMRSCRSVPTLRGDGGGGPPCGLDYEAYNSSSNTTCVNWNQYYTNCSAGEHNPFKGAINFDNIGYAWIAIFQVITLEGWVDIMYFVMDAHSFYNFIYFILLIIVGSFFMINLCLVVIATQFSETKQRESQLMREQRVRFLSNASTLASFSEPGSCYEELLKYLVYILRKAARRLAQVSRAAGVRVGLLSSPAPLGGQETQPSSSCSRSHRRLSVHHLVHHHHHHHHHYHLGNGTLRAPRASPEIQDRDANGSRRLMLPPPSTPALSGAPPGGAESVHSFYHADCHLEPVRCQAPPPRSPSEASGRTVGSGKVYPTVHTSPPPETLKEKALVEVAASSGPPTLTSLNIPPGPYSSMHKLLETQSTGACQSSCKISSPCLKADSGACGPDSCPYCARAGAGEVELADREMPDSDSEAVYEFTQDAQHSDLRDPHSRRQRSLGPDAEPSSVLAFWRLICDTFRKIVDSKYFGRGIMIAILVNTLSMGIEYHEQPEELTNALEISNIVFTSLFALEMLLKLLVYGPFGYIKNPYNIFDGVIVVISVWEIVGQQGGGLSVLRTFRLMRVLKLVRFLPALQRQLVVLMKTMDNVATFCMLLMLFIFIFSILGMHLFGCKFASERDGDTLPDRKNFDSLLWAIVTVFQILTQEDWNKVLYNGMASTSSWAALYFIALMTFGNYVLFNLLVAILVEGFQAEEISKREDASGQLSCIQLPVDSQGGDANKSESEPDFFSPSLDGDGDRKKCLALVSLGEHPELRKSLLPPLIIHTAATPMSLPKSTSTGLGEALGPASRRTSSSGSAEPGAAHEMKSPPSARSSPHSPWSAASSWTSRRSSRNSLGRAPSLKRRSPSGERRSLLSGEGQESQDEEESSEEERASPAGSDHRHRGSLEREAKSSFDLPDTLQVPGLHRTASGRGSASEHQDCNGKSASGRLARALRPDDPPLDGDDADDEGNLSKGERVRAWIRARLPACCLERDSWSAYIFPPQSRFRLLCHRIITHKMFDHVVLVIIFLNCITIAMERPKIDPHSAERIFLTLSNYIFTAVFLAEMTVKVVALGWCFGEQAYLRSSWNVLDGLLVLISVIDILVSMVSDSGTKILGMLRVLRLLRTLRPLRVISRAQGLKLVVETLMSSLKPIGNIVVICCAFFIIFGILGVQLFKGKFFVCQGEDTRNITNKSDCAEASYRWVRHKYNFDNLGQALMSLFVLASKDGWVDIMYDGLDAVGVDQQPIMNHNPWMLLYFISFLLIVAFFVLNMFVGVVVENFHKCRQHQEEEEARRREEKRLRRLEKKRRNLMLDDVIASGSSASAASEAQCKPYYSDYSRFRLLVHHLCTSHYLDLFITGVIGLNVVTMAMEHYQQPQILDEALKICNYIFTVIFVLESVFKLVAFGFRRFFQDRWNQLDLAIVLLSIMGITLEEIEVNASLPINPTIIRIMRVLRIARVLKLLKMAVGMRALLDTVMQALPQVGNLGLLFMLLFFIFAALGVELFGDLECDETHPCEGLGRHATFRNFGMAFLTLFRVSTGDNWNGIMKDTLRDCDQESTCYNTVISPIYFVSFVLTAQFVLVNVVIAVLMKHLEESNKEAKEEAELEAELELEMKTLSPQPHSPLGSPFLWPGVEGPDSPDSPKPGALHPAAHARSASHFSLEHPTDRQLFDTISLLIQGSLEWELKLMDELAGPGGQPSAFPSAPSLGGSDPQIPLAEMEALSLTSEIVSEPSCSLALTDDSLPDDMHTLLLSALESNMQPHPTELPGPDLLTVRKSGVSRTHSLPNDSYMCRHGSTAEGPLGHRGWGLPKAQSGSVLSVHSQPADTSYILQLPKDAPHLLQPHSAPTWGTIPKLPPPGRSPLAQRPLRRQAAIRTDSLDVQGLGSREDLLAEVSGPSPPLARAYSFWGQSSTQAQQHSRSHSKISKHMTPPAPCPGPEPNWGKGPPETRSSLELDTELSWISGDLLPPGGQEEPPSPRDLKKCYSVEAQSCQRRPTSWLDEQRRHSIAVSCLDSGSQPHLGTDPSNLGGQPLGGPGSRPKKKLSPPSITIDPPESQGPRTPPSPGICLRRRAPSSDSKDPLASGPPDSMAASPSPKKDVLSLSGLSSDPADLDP
Method in brief: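 Percent inhibition derived from […] area against untreated control (100%), after 75 s compound pre-exposure and 75 mM KCl activation. Cells: HEK293 with stable α1G plus Kir2.1, fluo-3/AM-labelled (5 μM), assayed in pH 7.4 HEPES containing 10 mM CaCl2.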

inhibition at 10 µM [1] [%] | melting point [°C] | FDSS (% inhibition)/10uM [1] [%] | Compound
51.1 | 180 | – | Cl.O=C(CC1CSC(=NC2CCCCC2)N1C1CCCCC1)NCc1ccccc1C(F)(F)F (stereo not drawn) [KHG24547, (2-cyclohexylimino-3-cyclohexyl-1,3-thiazolidine-4-yl)-N-(2-trifluoromethylbenzyl)-acetamide hydrochloride]
42.6 | 187.9 | – | CN1C(=NC2CCCCCC2)SCC1C(=O)Nc1cc(F)ccc1F.Cl (stereo not drawn) [KHG24626, (2-cycloheptylimino-3-methyl-1,3-thiazolidine-4-yl)-N-(2,5-difluorophenyl)-carboxamide hydrochloride]
48.5 | 209.6 | – | CN1C(=NC2CCCCCC2)SCC1C(=O)Nc1ccc(F)c(F)c1 (stereo not drawn) [KHG24627, (2-cycloheptylimino-3-methyl-1,3-thiazolidine-4-yl)-N-(3,4-difluorophenyl)-carboxamide]
– | 202.1 | 47.03 | Cc1ccc(NC(=O)C2CSC(=NC3CCCCCC3)N2C)cc1.Cl (stereo not drawn) [KHG24629, (2-cycloheptylimino-3-methyl-1,3-thiazolidine-4-yl)-N-(4-methylphenyl)-carboxamide hydrochloride]
– | 202 | 57.06 | CN1C(=NC2CCCCCC2)SCC1C(=O)Nc1cc(C(F)(F)F)cc(C(F)(F)F)c1.Cl (stereo not drawn) [KHG24632, (2-cycloheptylimino-3-methyl-1,3-thiazolidine-4-yl)-N-(3,5-ditrifluoromethylphenyl)-carboxamide hydrochloride]
40.4 | 109.2 | – | CN1C(=NC2CCCCCC2)SCC1C(=O)Nc1ccc(Br)cc1 (stereo not drawn) [KHG24633, (2-cycloheptylimino-3-methyl-1,3-thiazolidine-4-yl)-N-(4-bromophenyl)-carboxamide]
46.9 | 232.8 | – | CN1C(=NC2CCCCCC2)SCC1C(=O)Nc1ccccc1Br.Cl (stereo not drawn) [KHG24634, (2-cycloheptylimino-3-methyl-1,3-thiazolidine-4-yl)-N-(2-bromophenyl)-carboxamide hydrochloride]
35.2 | 257 to 259 | – | CC1SC(=NC2CCCCC2)N(C)C1CC(=O)Nc1cccc(F)c1.Cl (stereo not drawn) [KHG24636, (2-cyclohexylimino-3,5-dimethyl-1,3-thiazolidine-4-yl)-N-(3-fluorophenyl)-acetamide hydrochloride]
40.8 | 236 to 238 | – | CC1SC(=NC2CCCCCC2)N(C)C1CC(=O)Nc1ccccc1.Cl (stereo not drawn) [KHG24638, (2-cycloheptylimino-3,5-dimethyl-1,3-thiazolidine-4-yl)-N-phenyl-acetamide hydrochloride]
48.5 | 248 to 250 | – | Cc1ccc(NC(=O)CC2C(C)SC(=NC3CCCCCC3)N2C)cc1.Cl (stereo not drawn) [KHG24639, (2-cycloheptylimino-3,5-dimethyl-1,3-thiazolidine-4-yl)-N-(4-methylphenyl)-acetamide hydrochloride]
39.6 | 197 to 199 | – | CC1SC(=NC2CCCCCC2)N(C)C1CC(=O)Nc1ccccc1F.Cl (stereo not drawn) [KHG24640, (2-cycloheptylimino-3,5-dimethyl-1,3-thiazolidine-4-yl)-N-(2-fluorophenyl)-acetamide hydrochloride]
63.5 | 247 to 249 | – | CC1SC(=NC2CCCCCC2)N(C)C1CC(=O)Nc1cccc(F)c1.Cl (stereo not drawn) [KHG24641, (2-cycloheptylimino-3,5-dimethyl-1,3-thiazolidine-4-yl)-N-(3-fluorophenyl)-acetamide hydrochloride]
66.7 | 255 to 258 | – | CC1SC(=NC2CCCCCC2)N(C)C1CC(=O)Nc1ccc([N+](=O)[O-])cc1.Cl (stereo not drawn) [KHG24642, (2-cycloheptylimino-3,5-dimethyl-1,3-thiazolidine-4-yl)-N-(4-nitrophenyl)-acetamide hydrochloride]
65.4 | 240 to 242 | – | CC1SC(=NC2CCCCCC2)N(C)C1CC(=O)Nc1ccc(Cl)cc1.Cl (stereo not drawn) [KHG24643, (2-cycloheptylimino-3,5-dimethyl-1,3-thiazolidine-4-yl)-N-(4-chlorophenyl)-acetamide hydrochloride]
53.4 | 248 to 250 | – | CC1SC(=NC2CCCCCC2)N(C)C1CC(=O)Nc1cc(Cl)cc(Cl)c1.Cl (stereo not drawn) [KHG24644, (2-cycloheptylimino-3,5-dimethyl-1,3-thiazolidine-4-yl)-N-(3,5-dichlorophenyl)-acetamide hydrochloride]
48.4 | 248 to 251 | – | CC1SC(=NC2CCCCCC2)N(C)C1CC(=O)Nc1cc([N+](=O)[O-])ccc1F.Cl (stereo not drawn) [KHG24645, (2-cycloheptylimino-3,5-dimethyl-1,3-thiazolidine-4-yl)-N-(2-fluoro-5-nitrophenyl)-acetamide hydrochloride]
58.1 | 217 to 219 | – | CC1SC(=NC2CCCCCC2)N(C)C1CC(=O)Nc1cc(C(F)(F)F)cc(C(F)(F)F)c1.Cl (stereo not drawn) [KHG24646, (2-cycloheptylimino-3,5-dimethyl-1,3-thiazolidine-4-yl)-N-(3,5-ditrifluoromethylphenyl)-acetamide hydrochloride]
62.4 | 247 to 271 | – | CC1SC(=NC2CCCCCC2)N(C)C1CC(=O)Nc1ccc(OC(F)(F)F)cc1.Cl (stereo not drawn) [KHG24647, (2-cycloheptylimino-3,5-dimethyl-1,3-thiazolidine-4-yl)-N-(4-trifluoromethoxyphenyl)-acetamide hydrochloride]
46.1 | 220 to 223 | – | CC1SC(=NC2CCCC2)N(C)C1CC(=O)Nc1ccc(C(C)(C)C)cc1.Cl (stereo not drawn) [KHG24656, (2-cyclopentylimino-3,5-dimethyl-1,3-thiazolidine-4-yl)-N-(4-t-butylphenyl)-acetamide hydrochloride]
48 | 201 to 203 | – | CC1SC(=NC2CCCC2)N(C)C1CC(=O)Nc1ccc(Cl)cc1.Cl (stereo not drawn) [KHG24657, (2-cyclopentylimino-3,5-dimethyl-1,3-thiazolidine-4-yl)-N-(4-chlorophenyl)-acetamide hydrochloride]
46.2 | 226.1 | – | CN1C(=NC2CCCCCC2)SCC1C(=O)NCc1cccc(F)c1.Cl (stereo not drawn) [KHG24666, (2-cycloheptylimino-3-methyl-1,3-thiazolidine-4-yl)-N-(3-fluorobenzyl)-carboxamide hydrochloride]
– | 140.1 | 45.99 | CN1C(=NC2CCCCCC2)SCC1C(=O)NCc1cccc(F)c1 (stereo not drawn) [KHG24667, (2-cycloheptylimino-3-methyl-1,3-thiazolidine-4-yl)-N-(3-fluorobenzyl)-carboxamide]
50.7 | 197.3 | – | Br.CN1C(=NC2CCCCCC2)SCC1C(=O)NCc1cccc(Br)c1 (stereo not drawn) [KHG24668, (2-cycloheptylimino-3-methyl-1,3-thiazolidine-4-yl)-N-(3-bromobenzyl)-carboxamide hydrobromide]
– | 133 | 36.57 | CN1C(=NC2CCCCCC2)SCC1C(=O)NCc1cccc(Br)c1 (stereo not drawn) [KHG24669, (2-cycloheptylimino-3-methyl-1,3-thiazolidine-4-yl)-N-(3-bromobenzyl)-carboxamide]
